According to the NIST ThermoML archive (doi:10.1016/j.tca.2016.03.026):

Experiments:
[1] = xn = mol fraction of the nth substance listed; conditions: 100 kPa, Liquid; for speed of sound: Frequency=3 MHz, Sing-around technique in a fixed-path interferometer; for mass density: Vibrating tube method
[2] = refractive index (Na D-line) (dimensionless); xn = mol fraction of the nth substance listed; conditions: 100 kPa, Liquid, Standard Abbe refractometry

CCCCCCCC[n+]1ccn(C)c1.F[B-](F)(F)F [1-methyl-3-octylimidazolium tetrafluoroborate] + CC(C)(C)O
Conditions	mass density, 298.15 K [kg/m3]	mass density, 308.15 K [kg/m3]	mass density, 318.15 K [kg/m3]	refractive index, 298.15 K	refractive index, 308.15 K	refractive index, 318.15 K	speed of sound, 298.15 K [m/s]	speed of sound, 308.15 K [m/s]	speed of sound, 318.15 K [m/s]
[1], x1 = 0.1017	858.69	849.64	840.32	–	–	–	1188.3	1157.2	1119.1
[1], x1 = 0.1988	914.56	906	897.39	–	–	–	1254.2	1221.6	1190.2
[1], x1 = 0.3011	959.49	951.41	943.34	–	–	–	1309.4	1275.6	1246.5
[1], x1 = 0.4052	994.81	987.25	979.38	–	–	–	1351.5	1322.2	1293.3
[1], x1 = 0.5002	1020.68	1013.4	1005.9	–	–	–	1382.5	1353.6	1324.9
[1], x1 = 0.604	1044.05	1037.31	1029.92	–	–	–	1410.1	1383.3	1354.5
[1], x1 = 0.7024	1062.66	1056.01	1049.1	–	–	–	1433.4	1409	1380.2
[1], x1 = 0.7992	1078.39	1071.8	1064.98	–	–	–	1451.3	1428.2	1402.2
[1], x1 = 0.9014	1092.82	1086.23	1079.48	–	–	–	1467.6	1443.3	1417.2
[1], x1 = 1	1105.02	1098.32	1091.54	–	–	–	1485.1	1458.5	1433.2
[2], x1 = 0.1017	–	–	–	1.40022	1.39681	1.39317	–	–	–
[2], x1 = 0.1988	–	–	–	1.40992	1.40684	1.40405	–	–	–
[2], x1 = 0.3011	–	–	–	1.41591	1.41342	1.41058	–	–	–
[2], x1 = 0.4052	–	–	–	1.41962	1.41719	1.41452	–	–	–
[2], x1 = 0.5002	–	–	–	1.42177	1.41911	1.41635	–	–	–
[2], x1 = 0.604	–	–	–	1.42411	1.42168	1.41871	–	–	–
[2], x1 = 0.7024	–	–	–	1.42628	1.42348	1.42104	–	–	–
[2], x1 = 0.7992	–	–	–	1.42805	1.42562	1.42272	–	–	–
[2], x1 = 0.9014	–	–	–	1.43025	1.42769	1.42513	–	–	–
[2], x1 = 1	–	–	–	1.43253	1.42984	1.42715	–	–	–

CCCCCCCC[n+]1ccn(C)c1.F[B-](F)(F)F [1-methyl-3-octylimidazolium tetrafluoroborate] + CC(C)CO
Conditions	mass density, 298.15 K [kg/m3]	mass density, 308.15 K [kg/m3]	mass density, 318.15 K [kg/m3]	refractive index, 298.15 K	refractive index, 308.15 K	refractive index, 318.15 K	speed of sound, 298.15 K [m/s]	speed of sound, 308.15 K [m/s]	speed of sound, 318.15 K [m/s]
[1], x1 = 0.1084	876.21	869.11	860.8	–	–	–	1230.3	1198.3	1162.2
[1], x1 = 0.2056	927.81	920.72	912.57	–	–	–	1274.1	1242.4	1206.4
[1], x1 = 0.3002	966.65	959.59	951.64	–	–	–	1314.4	1282.1	1246.2
[1], x1 = 0.4082	1001.41	994.4	986.65	–	–	–	1354.1	1322.4	1287.5
[1], x1 = 0.4989	1024.88	1017.95	1010.44	–	–	–	1381.1	1351.3	1317.8
[1], x1 = 0.6024	1047.08	1040.26	1032.97	–	–	–	1407.2	1378.2	1347.4
[1], x1 = 0.7044	1065.38	1058.63	1051.52	–	–	–	1429.1	1402.1	1373.3
[1], x1 = 0.8062	1080.91	1074.22	1067.26	–	–	–	1447.2	1421.1	1394.3
[1], x1 = 0.8998	1093.3	1086.63	1079.78	–	–	–	1463.8	1437.1	1411.3
[1], x1 = 1	1105.02	1098.32	1091.54	–	–	–	1485.1	1458.5	1433.2
[2], x1 = 0.1084	–	–	–	1.40643	1.40292	1.40008	–	–	–
[2], x1 = 0.2056	–	–	–	1.41442	1.41142	1.40854	–	–	–
[2], x1 = 0.3002	–	–	–	1.41922	1.41636	1.41407	–	–	–
[2], x1 = 0.4082	–	–	–	1.42292	1.41998	1.41801	–	–	–
[2], x1 = 0.4989	–	–	–	1.42482	1.42182	1.41925	–	–	–
[2], x1 = 0.6024	–	–	–	1.42664	1.42372	1.42108	–	–	–
[2], x1 = 0.7044	–	–	–	1.42845	1.42562	1.42306	–	–	–
[2], x1 = 0.8062	–	–	–	1.43004	1.42748	1.42474	–	–	–
[2], x1 = 0.8998	–	–	–	1.43121	1.42866	1.42604	–	–	–
[2], x1 = 1	–	–	–	1.43253	1.42984	1.42715	–	–	–

CCCCCCCC[n+]1ccn(C)c1.F[B-](F)(F)F [1-methyl-3-octylimidazolium tetrafluoroborate] + CCCCO
Conditions	mass density, 298.15 K [kg/m3]	mass density, 308.15 K [kg/m3]	mass density, 318.15 K [kg/m3]	refractive index, 298.15 K	refractive index, 308.15 K	refractive index, 318.15 K	speed of sound, 298.15 K [m/s]	speed of sound, 308.15 K [m/s]	speed of sound, 318.15 K [m/s]
[1], x1 = 0.1027	878.23	870.62	862.9	–	–	–	1273.2	1240.8	1206.7
[1], x1 = 0.2022	929.75	922.28	914.69	–	–	–	1306.5	1274.7	1241.8
[1], x1 = 0.3056	970.63	963.3	955.89	–	–	–	1339.7	1308.7	1276.3
[1], x1 = 0.3989	999.88	992.71	985.42	–	–	–	1366.1	1336	1304.2
[1], x1 = 0.5062	1027.17	1020.16	1013	–	–	–	1392.8	1363.2	1333.3
[1], x1 = 0.6018	1047.22	1040.32	1033.31	–	–	–	1413.7	1384.8	1356
[1], x1 = 0.6978	1064.35	1057.54	1050.61	–	–	–	1431.9	1403.8	1377
[1], x1 = 0.8014	1080.2	1073.47	1066.62	–	–	–	1450.2	1423	1397.2
[1], x1 = 0.9062	1094.06	1087.36	1080.57	–	–	–	1468.3	1441.6	1416.3
[1], x1 = 1	1105.02	1098.32	1091.54	–	–	–	1485.1	1458.5	1433.2
[2], x1 = 0.1027	–	–	–	1.40763	1.40492	1.40232	–	–	–
[2], x1 = 0.2022	–	–	–	1.41502	1.41254	1.40964	–	–	–
[2], x1 = 0.3056	–	–	–	1.41903	1.41692	1.41438	–	–	–
[2], x1 = 0.3989	–	–	–	1.42183	1.41956	1.41736	–	–	–
[2], x1 = 0.5062	–	–	–	1.42405	1.42175	1.41965	–	–	–
[2], x1 = 0.6018	–	–	–	1.42594	1.42362	1.42126	–	–	–
[2], x1 = 0.6978	–	–	–	1.42791	1.42542	1.42301	–	–	–
[2], x1 = 0.8014	–	–	–	1.42974	1.42732	1.42444	–	–	–
[2], x1 = 0.9062	–	–	–	1.43151	1.42861	1.42615	–	–	–
[2], x1 = 1	–	–	–	1.43253	1.42984	1.42715	–	–	–
